Values of other authors, collected in patent publication US20200113824A1, “DISPENSING CAP CONTAINING A SOLUBILISATE OF A […] ACTIVE AGENT OR DIETARY SUPPLEMENT” (priority 2017, published 2020).

Key:
human CYP3A4 = human CYP3A4 (Homo sapiens, UniProt P08684)
P-glycoprotein = P-glycoprotein (Homo sapiens, UniProt P08183)
murine gut microbiota = conditions: promoting obesity and inflammatory bowel diseases

Chain of human CYP3A4 (P08684 whole entry): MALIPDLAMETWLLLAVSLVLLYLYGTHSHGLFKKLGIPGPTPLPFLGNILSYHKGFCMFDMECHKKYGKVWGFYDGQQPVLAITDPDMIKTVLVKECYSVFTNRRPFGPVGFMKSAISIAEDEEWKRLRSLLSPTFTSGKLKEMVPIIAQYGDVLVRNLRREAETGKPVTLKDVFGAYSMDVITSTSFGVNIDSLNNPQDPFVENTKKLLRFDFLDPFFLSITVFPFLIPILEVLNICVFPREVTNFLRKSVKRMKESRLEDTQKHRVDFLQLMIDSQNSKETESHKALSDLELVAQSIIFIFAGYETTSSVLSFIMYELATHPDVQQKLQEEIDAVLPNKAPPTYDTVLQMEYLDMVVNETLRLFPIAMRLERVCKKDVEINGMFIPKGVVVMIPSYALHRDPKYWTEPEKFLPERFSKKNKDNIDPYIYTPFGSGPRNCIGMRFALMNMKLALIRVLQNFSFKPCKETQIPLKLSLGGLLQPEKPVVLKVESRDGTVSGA
Chain of P-glycoprotein (P08183 whole entry): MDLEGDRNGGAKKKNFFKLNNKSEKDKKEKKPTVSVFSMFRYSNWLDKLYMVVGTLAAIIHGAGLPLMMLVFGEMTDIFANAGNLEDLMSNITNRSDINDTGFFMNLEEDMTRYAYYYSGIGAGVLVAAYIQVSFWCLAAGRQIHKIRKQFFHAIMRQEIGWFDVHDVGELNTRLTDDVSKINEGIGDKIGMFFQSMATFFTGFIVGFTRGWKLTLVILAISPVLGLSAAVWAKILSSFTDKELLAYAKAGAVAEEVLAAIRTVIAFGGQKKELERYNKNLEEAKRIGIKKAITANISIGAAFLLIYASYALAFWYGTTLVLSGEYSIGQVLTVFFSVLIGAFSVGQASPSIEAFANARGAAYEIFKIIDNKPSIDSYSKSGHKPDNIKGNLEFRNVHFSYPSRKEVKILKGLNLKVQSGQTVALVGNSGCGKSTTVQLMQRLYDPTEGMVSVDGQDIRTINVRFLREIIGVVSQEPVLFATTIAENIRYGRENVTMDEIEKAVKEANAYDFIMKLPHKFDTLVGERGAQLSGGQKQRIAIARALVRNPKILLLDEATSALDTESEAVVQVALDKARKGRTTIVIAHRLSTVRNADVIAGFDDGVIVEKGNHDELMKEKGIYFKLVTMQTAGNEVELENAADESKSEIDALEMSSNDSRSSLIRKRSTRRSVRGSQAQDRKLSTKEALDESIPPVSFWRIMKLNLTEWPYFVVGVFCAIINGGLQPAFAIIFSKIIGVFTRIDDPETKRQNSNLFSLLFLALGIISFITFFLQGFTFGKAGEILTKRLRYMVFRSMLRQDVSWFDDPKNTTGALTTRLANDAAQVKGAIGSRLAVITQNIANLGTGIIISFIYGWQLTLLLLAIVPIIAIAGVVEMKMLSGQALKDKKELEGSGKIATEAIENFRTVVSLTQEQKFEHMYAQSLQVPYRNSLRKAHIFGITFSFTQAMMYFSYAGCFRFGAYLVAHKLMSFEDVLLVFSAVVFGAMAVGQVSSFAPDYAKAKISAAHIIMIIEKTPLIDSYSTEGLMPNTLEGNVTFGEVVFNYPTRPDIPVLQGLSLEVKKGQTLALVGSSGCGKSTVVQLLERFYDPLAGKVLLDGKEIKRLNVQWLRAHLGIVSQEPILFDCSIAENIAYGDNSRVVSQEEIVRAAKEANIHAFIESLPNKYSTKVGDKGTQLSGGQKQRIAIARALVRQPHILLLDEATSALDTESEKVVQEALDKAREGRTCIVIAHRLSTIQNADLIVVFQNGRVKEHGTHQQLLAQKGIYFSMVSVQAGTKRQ

O=C(C=CC=Cc1ccc2c(c1)OCO2)N1CCCCC1 [Piperine, 1-[5-(1,3-benzodioxol-5-yl)-1-oxo-2,4-pentadienyl]piperidine]
inhibition of human CYP3A4 (human CYP3A4): inhibit | inhibition of P-glycoprotein (P-glycoprotein): inhibit

Polysorbate-80
effects on murine gut microbiota (murine gut microbiota): detrimental effects
